Experimental data published in patent US20100298384A1, “NOVEL OXAZOLIDINONE COMPOUNDS AS ANTIINFECTIVE AGENTS” (priority 2006, published 2010).

Compound	melting point [°C]
CC(=O)NC[C@H]1CN(c2ccc(-c3csc(Cn4cncn4)n3)c(F)c2)C(=O)O1 (stereo in doubt) [Example 14, N-{3-[3-fluoro-4-(2[1,2,4]triazol-1-ylmethyl-thiazol-4-yl)-phenyl]-2-oxo-oxazolidin-5-ylmethyl}-acetamide]	154 to 156
CC(=O)NC[C@H]1CN(c2ccc(-c3csc(Cn4ccnc4)n3)c(F)c2)C(=O)O1 (stereo in doubt) [Example 16, N-{3-[3-Fluoro-4-(2-imidazol-1-ylmethyl-thiazol-4-yl)-phenyl]-2-oxo-oxazolidin-5-ylmethyl}-acetamide]	154 to 156
CC(=O)NC[C@H]1CN(c2ccc(-n3cnc(Cn4ccnc4)c3)c(F)c2)C(=O)O1 (stereo in doubt) [Example 24, N-{3-[3-fluoro-4-(4-imidazol-1-ylmethyl-imidazol-1-yl)-phenyl]-2-oxo-oxazolidin-5-ylmethyl}-acetamide]	180 to 182
CC(=O)NC[C@H]1CN(c2ccc(-n3cnc(Cn4cncn4)c3)c(F)c2)C(=O)O1 (stereo in doubt) [Example 26, N-{3-[3-fluoro-4-(4-[1,2,4]triazol-1-ylmethyl-imidazol-1-yl)-phenyl]-2-oxo-oxazolidin-5-ylmethyl}-acetamide]	171 to 173
CC(=O)NC[C@H]1CN(c2ccc(-n3cnc(Cn4cccn4)c3)c(F)c2)C(=O)O1 (stereo in doubt) [Example 26, N-{3-[3-fluoro-4-(4-pyrazol-1-ylmethyl-imidazol-1-yl)-phenyl]-2-oxo-oxazolidin-5-ylmethyl}-acetamide]	158 to 160
COC(=O)NC[C@H]1CN(c2ccc(-n3cnc(Cn4ccnc4)c3)c(F)c2)C(=O)O1 (stereo in doubt) [Example 43, Methyl {3-[3-fluoro-4-(4-imidazol-1-ylmethyl-imidazol-1-yl)-phenyl]-2-oxo-oxazolidin-5-ylmethyl}-carbamate]	78 to 80
CCOC(=O)c1cn(Cc2cn(-c3ccc(N4C[C@H](CNC(=O)OC)OC4=O)cc3F)nn2)nc1N (stereo in doubt) [Example 47, Ethyl 3-amino-1-(1-{2-fluoro-4-[5-(methoxycarbonylamino-methyl)-2-oxo-oxazolidin-3-yl]-phenyl}-1H-[1,2,3]triazol-4-ylmethyl)-1H-pyrazole-4-carboxylate]	98 to 100
CC(=S)NC[C@H]1CN(c2ccc(-n3cnc(Cn4ccnc4)c3)c(F)c2)C(=O)O1 (stereo in doubt) [Example 65, N-{3-[3-fluoro-4-(4-imidazol-1-ylmethyl-imidazol-1-yl)-phenyl]-2-oxo-oxazolidin-5-ylmethyl}-thioacetamide]	160 to 162
CC(=S)NC[C@H]1CN(c2ccc(-n3cnc(Cn4cccn4)c3)c(F)c2)C(=O)O1 (stereo in doubt) [Example 66, N-{3-[3-fluoro-4-(4-pyrazol-1-ylmethyl-imidazol-1-yl)-phenyl]-2-oxo-oxazolidin-5-ylmethyl}-thioacetamide]	137 to 139
CC(=O)NC[C@H]1CN(c2ccc(-c3nc(Cn4ccnc4)co3)c(F)c2)C(=O)O1 [Example 6, N-{3-[3-fluoro-4-(4-imidazol-1-ylmethyl-oxazol-2-yl)-phenyl]-2-oxo-oxazolidin-5(S)-ylmethyl}-acetamide]	198 to 200
CC(=O)NC[C@H]1CN(c2ccc(-c3nc(Cn4ccnc4)cs3)c(F)c2)C(=O)O1 [Example 10, N-{3-[3-fluoro-4-(4-imidazol-1-ylmethyl-thiazol-2-yl)-phenyl]-2-oxo-oxazolidin-5(S)-ylmethyl}-acetamide]	192 to 194
CC(=O)NC[C@H]1CN(c2ccc(-c3nc(Cn4cncn4)cs3)c(F)c2)C(=O)O1 [Example 11, N-{3-[3-fluoro-4-(4-[1,2,4]triazol-1-ylmethyl-thiazol-2-yl)-phenyl]-2-oxo-oxazolidin-5(S)-ylmethyl}-acetamide]	196 to 198
CC(=O)NC[C@H]1CN(c2ccc(-c3nc(Cn4cccn4)cs3)c(F)c2)C(=O)O1 [Example 12, N-{3-[3-fluoro-4-(4-pyrazol-1-ylmethyl-thiazol-2-yl)-phenyl]-2-oxo-oxazolidin-5(S)-ylmethyl}-acetamide]	178 to 180
CC(=O)NC[C@H]1CN(c2ccc(-n3cc(Cn4ccnc4)cn3)c(F)c2)C(=O)O1 [Example 18, N-{3-[3-fluoro-4-(4-imidazol-1-ylmethyl-pyrazol-1-yl)phenyl]-2-oxo-oxazolidin-5-(8)-ylmethyl}-acetamide]	171 to 172
CC(=O)NC[C@H]1CN(c2ccc(-n3cc(Cn4cccn4)cn3)c(F)c2)C(=O)O1 [Example 20, N-{3-[3-fluoro-4-(4-pyrazol-1-ylmethyl-pyrazol-1-yl)-phenyl]-2-oxo-oxazolidin-5-(S)-ylmethyl}-acetamide]	186 to 187
CC(=O)NC[C@H]1CN(c2ccc(-n3cc(Cn4cncn4)cn3)c(F)c2)C(=O)O1 [Example 22, N-{3-[3-fluoro-4-(4-[1,2,4]triazol-1-ylmethyl-pyrazol-1-yl)-phenyl]-2-oxo-oxazolidin-5(S)-ylmethyl}-acetamide]	126 to 127
CC(=O)NC[C@H]1CN(c2ccc(-n3cc(Cn4ccc(C(F)(F)F)n4)nn3)c(F)c2)C(=O)O1 [Example 32]	130 to 140
COC(=O)NC[C@H]1CN(c2ccc(-c3nc(Cn4ccnc4)cs3)c(F)c2)C(=O)O1 [Example 33]	165 to 167
COC(=O)NC[C@H]1CN(c2ccc(-c3nc(Cn4cccn4)co3)c(F)c2)C(=O)O1 [Example 34, Methyl {3-[3-fluoro-4-(4-pyrazol-1-ylmethyl-oxazol-2-yl)-phenyl]-2-oxo-oxazolidin-5(S)-ylmethyl}-carbamate]	170 to 172
COC(=O)NC[C@H]1CN(c2ccc(-c3nc(Cn4cncn4)cs3)c(F)c2)C(=O)O1 [Example 35, Methyl {3-[3-fluoro-4-(4-[1,2,4]triazol-1-ylmethyl-thiazol-2-yl)-phenyl]-2-oxo-oxazolidin-5(S)-ylmethyl}-carbamate]	199 to 201
COC(=O)NC[C@H]1CN(c2ccc(-c3nc(Cn4cccn4)cs3)c(F)c2)C(=O)O1 [Example 36, Methyl {3-[3-fluoro-4-(4-pyrazol-1-ylmethyl-thiazol-2-yl)-phenyl]-2-oxo-oxazolidin-5(S)-ylmethyl}-carbamate]	142 to 144
COC(=O)NC[C@H]1CN(c2ccc(-n3cnc(Cn4cncn4)c3)c(F)c2)C(=O)O1 [Example 45, Methyl {3-[3-fluoro-4-(4-[1,2,4]-triazol-1-ylmethyl-imidazol-1-yl)-phenyl]-2-oxo-oxazolidin-5-ylmethyl}-carbamate]	184 to 186
COC(=O)NC[C@H]1CN(c2ccc(-n3cc(Cn4cncn4)nn3)c(F)c2)C(=O)O1 [Example 48]	170
COC(=O)NC[C@H]1CN(c2ccc(-n3cc(Cn4ccc(C(F)(F)F)n4)nn3)c(F)c2)C(=O)O1 [Example 49]	129 to 130
COC(=S)NC[C@H]1CN(c2ccc(-c3nc(Cn4cccn4)co3)c(F)c2)C(=O)O1 [Example 50, O-methyl {3-[3-fluoro-4-(4-pyrazol-1-ylmethyl-oxazol-2-yl)-phenyl]-2-oxo-oxazolidin-5(S)-ylmethyl}-thiocarbamate]	145 to 147
